Laboratory results reported in patent US5084462A, “4-quinoline carboxylic acid derivatives useful as immunosuppressive agents” (The Du Pont Merck Pharmaceutical Company, priority 1990, dated 1992).
Read-outs that look alike come from different tables or passages of the source.

Experiments:
[1] = test system: contact sensitivity response to 2,4-dinitrofluorobenzene (DNFB); assay: Contact sensitivity response to 2,4-dinitrofluorobenzene (DNFB) in mice; type: in vivo, Balb/c female mice; details: for inhibition in vivo at 0.4 mg/kg / inhibition in vivo at 2 mg/kg / inhibition in vivo at 10 mg/kg / inhibition in vivo at 20 mg/kg / ED50: Mus musculus; for inhibition in vivo at 0.4 mg/kg / inhibition in vivo at 2 mg/kg / inhibition in vivo at 10 mg/kg / inhibition in vivo at 20 mg/kg: 24 h
Procedure: This is an antigen-specific T-cell mediated inflammatory response that represents delayed-type hypersensitivity reactions seen in both humans and other mammals.
Balb/c female mice (.perspectiveto.20g, Charles River) were sensitized on the shaved abdomen with 25 μl of 0.5% 2,4-dinitrofluorobenzene ([…], Eastman Kodak Co.) in a vehicle of 4:1 acetone:olive oil on days 0 and 1. Mice were ear challenged with 20 μl of 0.2% DNFB in a vehicle of 4:1 acetone:olive oil on day 5. A constant area of the ears was measured immediately before challenge and 24 hours later with an engineer's micrometer. Ear swelling was expressed as the difference in ear thickness before and after challenge in units of 10^-4 inches±SEM. Percent suppression was calculated as: [formula] […] Negative controls were not sensitized on days 0 and 1 but were ear challenged on day 5. Ten mice were used per group.

[2] = test system: human mixed lymphocyte reaction; assay: Human mixed lymphocyte reaction (3H-thymidine incorporation); type: cell-based; details: Table 4, human PBMC of two donors, 6 days
Source text: Contact sensitivity to DNFB has teen extensively studied and characterized in the mouse to determine the regulatory mechanisms involved in cell mediated immune responses (Claman, et al., Immunol Rev 50:105, 1980). This is an antigen-specific T-cell mediated inflammatory response that represents delayed-type hypersensitivity reactions seen in both humans and other mammals. The primary use of the human mixed lymphocyte reaction is for the determination of transplantation compatibility between the donor (graft) and the recipient (Park and Good, p. 71. In Yunis, et al., Tissue typing and organ transplantation. 1973 Academic Press Inc., N.Y.).
Blood was obtained by venipuncture from two nonrelated human donors. Peripheral blood mononuclear cells (PBMC) were isolated from these samples by using the Leuco Prep procedure (Becton-Dickinson). PBMC were washed twice in phosphate buffered saline (without calcium and magnesium) and the separate cell isolations were adjusted to the appropriate concentrations in media (RPMI 1640) supplemented with 10% human AB serum and […] gentamicin. Cells from donor A (2×10^5) were incubated with cells from donor B (2×10^5) in 96 well round bottom microliter plates at 37° C., 5% CO2 for 6 days. Eighteen hours prior to harvesting cells from the plates, all wells were pulsed with 1 μCi of ^3 H-thymidine. Cells from the plates were harvested on day 6 and ^3 H-thymidine incorporation was determined using a scintillation counter.

[3] = test system: adjuvant-induced arthritis; assay: Adjuvant-induced arthritis in rats; type: in vivo, Male Lewis rats; details: for Non-Injected Hind-Paw Volume / % Suppression: day 18; for % Suppression: Table 5, non-injected hind paw
Procedure: Rat adjuvant-induced arthritis represents a systemic inflammatory disease with bone and cartilage changes similar to that observed in rheumatoid arthritis, but in an accelerated time span (Pearson, Arth Rheum 7:80, 1964).
Male Lewis rats (Charles River) weighing 160-210 grams were injected subcutaneously with 0.1 ml of Freund's Complete Adjuvant containing 5 mg of M. butyricum/ml of paraffin oil (Difco Laboratories) into the plantar region of the right hind paw. Paraffin oil was injected for non-arthritic controls. Ten rats were used per group. Compounds were prepared in 0.25% Methocel® (Dow Chemical Co) with one drop of Tween® 80 per 10 ml of Methocel®. Animals were dosed every day beginning on the day of paw injection until day 18. The weight of each animal was recorded every other day beginning on the day of the paw injections. On day 18 the animals were weighed, and the non-injected hind paw volume was measured using a Ugo Basile Volume Differential Plethysmometer.

[4] = po, Table 3, ear swelling, 20.0 mg/kg oral, read-out: % Suppression

SMILES: CN(Cc1cnc2nc(N)nc(N)c2n1)c1ccc(C(=O)N[C@@H](CCC(=O)O)C(=O)O)cc1 [Methotrexate, reference compound]
- inhibition in vivo at 0.4 mg/kg ([1]; po, Table 2, ear swelling, 0.4 mg/kg oral, read-out: % Suppression): 3.83%
- inhibition in vivo at 2 mg/kg ([1]; po, Table 2, ear swelling, 2.0 mg/kg oral, read-out: % Suppression): 18.1%
- inhibition in vivo at 10 mg/kg ([1]; po, Table 2, ear swelling, 10.0 mg/kg oral, read-out: % Suppression): 51.8%
- inhibition in vivo at 20 mg/kg ([1]; po, Table 2, ear swelling, 20.0 mg/kg oral, read-out: % Suppression): 63.6%
- inhibition in vivo at 20 mg/kg [1, 4]: 79.7%
- ED50 ([1]; Table 2, suppression of ear swelling, oral, days -2 through 6, read-out: ED50): 9 mg/kg
- Ear Swelling (units ± SEM), increase in ear thickness from day 5 to day 6 ([1]; Table 2, 0.4 mg/kg oral): 71.30 ± 2.96 10^-4 inches
- Ear Swelling (units ± SEM), increase in ear thickness from day 5 to day 6 ([1]; Table 2, 2.0 mg/kg oral): 60.80 ± 1.99 10^-4 inches
- Ear Swelling (units ± SEM), increase in ear thickness from day 5 to day 6 ([1]; Table 2, 10.0 mg/kg oral): 36.10 ± 3.23 10^-4 inches
- Ear Swelling (units ± SEM), increase in ear thickness from day 5 to day 6 ([1]; Table 2, 20.0 mg/kg oral): 27.45 ± 4.99 10^-4 inches
- Ear Swelling (units ± SEM), increase in ear thickness from day 5 to day 6 ([1]; Table 3, 20.0 mg/kg oral): 16.94 ± 2.10 10^-4 inches
- IC50 [2]: 2.5 nM

SMILES: Cc1c(-c2ccc(-c3ccc(O)cc3)cc2)nc2ccc(Cl)cc2c1C(=O)O [Example 12]
- inhibition in vivo at 20 mg/kg [1, 4]: 26.3%
- Ear Swelling (units ± SEM), increase in ear thickness from day 5 to day 6 ([1]; Table 3, 20.0 mg/kg oral): 54.58 ± 3.21 10^-4 inches

SMILES: COc1c(-c2ccc(-c3ccccc3)cc2)nc2ccc(F)cc2c1C(=O)O [Example 11]
- inhibition in vivo at 20 mg/kg [1, 4]: 74.1%
- Ear Swelling (units ± SEM), increase in ear thickness from day 5 to day 6 ([1]; Table 3, 20.0 mg/kg oral): 20.85 ± 2.53 10^-4 inches

SMILES: Cc1ccc2nc(-c3ccc(-c4ccccc4)cc3)c(C)c(C(=O)O)c2c1 [Example 5]
- inhibition in vivo at 20 mg/kg [1, 4]: 53.4%
- Ear Swelling (units ± SEM), increase in ear thickness from day 5 to day 6 ([1]; Table 3, 20.0 mg/kg oral): 35.47 ± 2.31 10^-4 inches

SMILES: COc1ccc2c(c1)c(CC(=O)O)c(C)n2C(=O)c1ccc(Cl)cc1 [Indomethacin, reference compound]
- IC50 [2]: > 1000 nM

SMILES: Cc1c(-c2ccc(-c3ccc(Br)cc3)cc2)nc2ccc(F)cc2c1C(=O)O [Example 4]
- inhibition in vivo at 20 mg/kg [1, 4]: 87%
- Ear Swelling (units ± SEM), increase in ear thickness from day 5 to day 6 ([1]; Table 3, 20.0 mg/kg oral): 11.80 ± 1.03 10^-4 inches

SMILES: Cc1c(-c2ccc(-c3ccccc3)cc2)nc2cccc(Cl)c2c1C(=O)[O-].[Na+] [Example 1, Sodium 2-(1,1'-Biphenyl-4-yl)-5-chloro-3-methyl-quinoline-4-carboxylate]
- ED50 ([1]; po): 3.5 mg/kg
- inhibition in vivo at 0.4 mg/kg ([1]; po, read-out: % Suppression, Table 2, ear swelling, 0.4 mg/kg oral): 11%
- inhibition in vivo at 2 mg/kg ([1]; po, read-out: % Suppression, Table 2, ear swelling, 2.0 mg/kg oral): 23.4%
- inhibition in vivo at 10 mg/kg ([1]; po, read-out: % Suppression, Table 2, ear swelling, 10.0 mg/kg oral): 92.7%
- inhibition in vivo at 20 mg/kg ([1]; po, read-out: % Suppression, Table 2, ear swelling, 20.0 mg/kg oral): 93.9%
- Ear Swelling (units ± SEM), increase in ear thickness from day 5 to day 6 ([1]; Table 2, 0.4 mg/kg oral): 66.05 ± 4.32 10^-4 inches
- Ear Swelling (units ± SEM), increase in ear thickness from day 5 to day 6 ([1]; Table 2, 2.0 mg/kg oral): 56.94 ± 4.80 10^-4 inches
- Ear Swelling (units ± SEM), increase in ear thickness from day 5 to day 6 ([1]; Table 2, 10.0 mg/kg oral): 6.10 ± 0.75 10^-4 inches
- Ear Swelling (units ± SEM), increase in ear thickness from day 5 to day 6 ([1]; Table 2, 20.0 mg/kg oral): 5.20 ± 1.17 10^-4 inches
- IC50 [2]: 9.6 nM
- ED50 ([3]; Rattus norvegicus, 432 h, Table 5 footnote, adjuvant-induced arthritis): 21 mg/kg
- Weight Gain ([3]; Table 5, 10 mg/kg daily to day 18): -14.0 ± 4.2 g
- Non-Injected Hind-Paw Volume ([3]; Table 5, 10 mg/kg daily): 1.87 ± 0.08 mL
- Weight Gain ([3]; Table 5, 17.5 mg/kg daily to day 18): 2.8 ± 5.3 g
- Non-Injected Hind-Paw Volume ([3]; Table 5, 17.5 mg/kg daily): 1.72 ± 0.08 mL
- Weight Gain ([3]; Table 5, 25.0 mg/kg daily to day 18): 20.6 ± 6.3 g
- Non-Injected Hind-Paw Volume ([3]; Table 5, 25.0 mg/kg daily): 1.34 ± 0.10 mL
- % Suppression ([3]; 10 mg/kg daily): 1.4%
- % Suppression ([3]; 17.5 mg/kg daily): 20.8%
- % Suppression ([3]; 25.0 mg/kg daily): 70.6%
